Legend:
phosphofructokinase I = assay: Glycolytic enzyme activity in treated cells (colorimetric kit); type: cell-based, human; settings: MCF-7 cells, 24-h incubation, 1/2 IC50
pyruvate kinase M2 = biological target: T1, pyruvate kinase M2 (Homo sapiens, UniProt P14618); assay: as above; type: cell-based; settings: MCF-7 cells, 24-h incubation, 1/2 IC50
T1 construct: activity of rate-limiting glycolytic enzymes—hexokinase II, phosphofructokinase I, and pyruvate kinase M2—in MCF-7 cells; endogenous in cells
T1 sequence (P14618 whole entry): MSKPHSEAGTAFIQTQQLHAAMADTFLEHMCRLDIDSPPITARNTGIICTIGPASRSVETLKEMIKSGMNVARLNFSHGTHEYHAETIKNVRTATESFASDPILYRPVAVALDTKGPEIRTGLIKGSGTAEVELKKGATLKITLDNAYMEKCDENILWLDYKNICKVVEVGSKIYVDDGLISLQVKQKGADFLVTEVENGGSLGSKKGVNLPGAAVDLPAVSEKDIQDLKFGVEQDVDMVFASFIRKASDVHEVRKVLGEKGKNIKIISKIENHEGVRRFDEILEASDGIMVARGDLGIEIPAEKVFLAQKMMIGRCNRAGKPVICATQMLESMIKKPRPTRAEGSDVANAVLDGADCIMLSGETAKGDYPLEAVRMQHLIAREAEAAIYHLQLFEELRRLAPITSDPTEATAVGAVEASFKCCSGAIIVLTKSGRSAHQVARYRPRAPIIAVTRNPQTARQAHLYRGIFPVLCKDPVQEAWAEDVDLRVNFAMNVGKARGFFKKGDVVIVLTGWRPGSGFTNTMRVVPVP

SW-480 = assay: MTT cytotoxicity assay; type: cell-based; settings: SW480, Human colorectal cancer cells, 24 h, read-out: IC50 of Cytotoxic Effect, SW-480
Procedure: (§1) Human lung adenocarcinoma A549 cells, breast carcinoma MCF-7 cells, colon adenocarcinoma SW480 cells, neuroblastoma SH-SY5Y cells, and normal human embryonic kidney HEK-293 cells were obtained from the collection of the Institute of Cytology of the Russian Academy of Sciences (Saint Petersburg, Russia). Cultivation was performed in complete DMEM supplemented with glutamax, containing 10% fetal bovine serum and 1% penicillin-streptomycin. Cell cultures were incubated at 37 °C in a humidified atmosphere with 5% CO2.
(§2) The MTT assay was used to determine the cytotoxic profile of the synthesized compounds [128]. This method is based on the reduction of the tetrazolium salt (3-(4,5-dimethylthiazol-2-yl)-2,5-diphenyl tetrazolium bromide) by mitochondrial dehydrogenases of living cells to water-insoluble formazan crystals.
(§3) Cells in the exponential growth phase were seeded in 96-well culture plates. After 24 h, the test compounds were added to each well at various concentrations (from 0.01 to 100 µM) in triplicate. Control wells contained 1% DMSO solution.
(§4) Following a 24-h incubation with the compounds, 5 mg/mL MTT solution was added to each well, and the cells were incubated at 37 °C for 2 h. Then, the MTT solution was carefully removed, and 200 µL DMSO was added to dissolve the formed formazan crystals. Optical density was measured at a wavelength of 540 nm.
(§5) The efficacy indicators of the cytotoxic effect were IC50 values, representing compound concentrations causing 50% cell death in the sample.

A549 = assay: MTT cytotoxicity assay; type: cell-based; settings: Human non-small cell lung cancer, 24 h, read-out: IC50 of Cytotoxic Effect, A549
Procedure: as §1, §2, §3, §4, §5

MCF-7 = assay: MTT cytotoxicity assay; type: cell-based; settings: MCF7, Human breast adenocarcinoma cells, 24 h, read-out: IC50 of Cytotoxic Effect, MCF-7
Procedure: as §1, §2, §3, §4, §5

MTT cytotoxicity assay = type: cell-based; settings: HEK-293 cells (normal embryonic kidney), Human embryonic kidney (normal origin), read-out: IC50 of Cytotoxic Effect, Hek-293
Procedure: as §1, §2, §3, §4, §5

SH-SY5Y = assay: MTT cytotoxicity assay; type: cell-based; settings: Human neuroblastoma, 24 h, read-out: IC50 of Cytotoxic Effect, SH-SY5Y
Procedure: as §1, §2, §3, §4, §5

hexokinase II = assay: Glycolytic enzyme activity in treated cells (colorimetric kit); type: cell-based, human; settings: MCF-7 cells, 24-h incubation, 1/2 IC50
[1] = MTT cytotoxicity assay, whole cell line panel; type: cell-based; settings: human; summary of Table 1 over all five cell lines; read-out: IC50 values of the cytotoxic effect, range over the cell lines
Procedure: The cytotoxic effects of the synthesized compounds were tested on the cell lines A549, MCF-7, SW-480, SH-SY5Y, and HEK-293.

Compound | Inhibition of enzyme activity, % of control: PKM2 (pyruvate kinase M2) | Inhibition of enzyme activity, % of control: PFK1 (phosphofructokinase I) | IC50 (SW-480) [µM] | IC50 (A549) [µM] | IC50 (MCF-7) [µM] | IC50 at 24 h (MTT cytotoxicity assay) [µM] | IC50 (SH-SY5Y) [µM] | Inhibition of enzyme activity, % of control: HK2 (hexokinase II) | IC50 at 24 h [1] [µM]
O=C1C(Br)=C(Br)C(=O)c2c1nc1n2CCCC1 [Compound 6a, 7,8-dibromo-1,2,3,4-tetrahydropyrido[1,2-a]benzimidazole-6,9-dione] | 11.39 % of control | 9.75 % of control | 9.11 ± 0.13 | 9.53 ± 0.59 | 8.81 ± 1.65 | 24.8 ± 0.42 | 9.66 ± 0.57 | – | –
O=C1C(Br)=C(Cl)C(=O)c2c1nc1n2CCCC1 [Compound 6b, 7-bromo-8-chloro-1,2,3,4-tetrahydropyrido[1,2-a]benzimidazole-6,9-dione] | 14.85 % of control | 7.49 % of control | 10.5 ± 0.68 | 8.86 ± 3.19 | 7.79 ± 0.03 | 16.52 ± 0.15 | 8.6 ± 0.06 | 34.25 % of control | –
CO[C@@]12[C@H](COC(N)=O)C3=C(C(=O)C(C)=C(N)C3=O)N1C[C@@H]1N[C@@H]12 [Mytomycin C, Mitomycin C, reference compound] | – | – | 11.3 ± 0.46 | 18.1 ± 1.8 | 20.4 ± 1.74 | 6.59 ± 1.46 | 7.04 ± 0.02 | – | 8 to 20

More lines, main results first:

Inhibition of enzyme activity, % of control: PKM2 (pyruvate kinase M2) | Compound | Inhibition of enzyme activity, % of control: PFK1 (phosphofructokinase I) | IC50 (SW-480) [µM] | IC50 (A549) [µM] | IC50 (MCF-7) [µM] | IC50 at 24 h (MTT cytotoxicity assay) [µM] | IC50 (SH-SY5Y) [µM] | Inhibition of enzyme activity, % of control: HK2 (hexokinase II) | IC50 at 24 h [1] [µM]
13.57 % of control | O=C1C(Cl)=C(Br)C(=O)c2c1nc1n2CCCC1 [Compound 6c, 8-bromo-7-chloro-1,2,3,4-tetrahydropyrido[1,2-a]benzimidazole-6,9-dione] | 9.05 % of control | 10.22 ± 0.04 | 7.81 ± 0.64 | 8.35 ± 0.32 | 16 ± 0.18 | 9.49 ± 0.8 | 36.01 % of control | –
9.48 % of control | O=C1C(Cl)=C(Cl)C(=O)c2c1nc1n2CCCC1 [Compound 6d, 7,8-dichloro-1,2,3,4-tetrahydropyrido[1,2-a]benzimidazole-6,9-dione] | 8.30 % of control | 8.68 ± 0.2 | 7.76 ± 0.17 | 8.52 ± 0.23 | 15.1 ± 0.38 | 8.52 ± 0.49 | – | –
8.36 % of control | CC1CCn2c(nc3c2C(=O)C(Br)=C(Cl)C3=O)C1 (stereo not shown) [Compound 6e, 8-bromo-7-chloro-3-methyl-1,2,3,4-tetrahydropyrido[1,2-a]benzimidazole-6,9-dione] | 7.40 % of control | 9.53 ± 0.51 | 8.23 ± 0.39 | 8.97 ± 0.05 | 20.2 ± 0.3 | 9.28 ± 0.15 | 36.22 % of control | –
12.09 % of control | O=C1C(Cl)=C(Br)C(=O)c2c1nc1n2CCOC1 [Compound 6f, 7-bromo-8-chloro-3,4-dihydro-1H-[1,4]oxazino[4,3-a]benzimidazole-6,9-dione] | 7.57 % of control | 8.44 ± 0.07 | 11.3 ± 2.49 | 8.9 ± 0.19 | 25.38 ± 0.02 | 10.8 ± 0.93 | 30.83 % of control | –
